The values below come from US8642087B1, “Compounds and methods for reducing oxidative stress” (University of Kentucky Research Foundation, priority 2010, dated 2014).

Values after ≈ are worked out from the molar mass of the structure shown.

Series [1] concerns HUVECs. Kind of series: H2O2-induced oxidative stress injury to HUVECs, cell viability by MTT assay. The format is cell-based, human. The following applies: for cell viability compared to untreated control cells: pre-treatment 2 hrs, then 500 μM H2O2, 24 hrs. The protocol: To assess the effect of H2O2-induced oxidative stress injury to HUVECs in the presence of PAβAE degradation products, cell viability was measured and used as a marker of the injury to the cells subsequent to exposure to the degradation products of PAβAE and H2O2. […] Cells were exposed to antioxidants at different concentrations and a final H2O2 concentration of 500 μM. 24 hrs later, cell viability was measured using MTT assay as described above.

The test system of series [2] is HUVECs. Kind of series: HNE-induced oxidative stress injury to HUVEC monolayer, transendothelial electrical resistance (TEER). The format is cell-based, human. The conditions noted are these: 20 hours; degradation products 100 μg/mL alone; HNE 30 μM alone. The protocol: To assess the effect of 4-hydroxy-2-trans-nonenal (HNE)-induced oxidative stress injury to HUVECs in the presence of PAβAE degradation products, transendothelial electrical resistance (TEER) values were measured and used to monitor the permeability and injury of the cells subsequent to exposure to the degradation products of PAβAE and FINE. Briefly, HUVECs were seeded into 24 well plate Transwell inserts (Corning Costar Transwell Plates). Wells were rinsed with HBSS and media replaced every other day. TEER values (EVOM II reader, World Precision Instruments) were monitored every day until resistance stabilization after approximately 7 days. HUVECs were treated with degradation products of PAβAE, including 10% quercetin multiacrylate (QMA) and 10% curcumin multiacrylate (CMA), at a concentration of 100 μg/mL in the cell media for 1 hour. Following prophylactic incubation, and without removing PABAE degradation products, FINE was added to a final concentration 30 μM to induce oxidative injury. TEER was measured before cells were seeded, immediately before addition PABAE degradation products, and 20 hours following FINE incubation, which is consistent with maximum FINE induced injury. Change in TEER was calculated as shown below in Eq. 4. Change in TEER=(Ω20 hr−ΩTranswell insert)/(Ω0 hr−ΩTranswell insert) (4)

The test system of series [3] is human umbilical vein endothelial cells (HUVECs). The conditions noted are these: 24 h.
Protocol: (§1) To further examine the properties of the PAβAE hydrogels and their ability to be used as a polymer that is capable of controllably releasing an antioxidant molecule, the cytotoxicity of PAβAE degradation products was measured. In this analysis, human umbilical vein endothelial cells (HUVECs) were first purchased from Lonza (Allendale, N.J.) and cultured in EGM-2 media with 2% fetal bovine serum at 37° C. in a humidified atmosphere of 5% CO2, with HUVECs in passages 3 to 5 then being used. To assess the cytotoxicity of the degradation products, the HUVECs were then treated with degradation products of the PAβAEs at different concentrations and a MTT assay was used to measure cell viability after treating cells with the different concentrations of PAβAE degradation products. Briefly, HUVECs were seeded onto a 96-well plate at a cell density of 35,000 cells/cm^2, and, 24 hrs later, cell media was replaced with treatment solutions. 24 hrs post treatment, treatment solution was removed, cells were washed twice in PBS, and 200 μL of 0.5 mg/ml MTT solution in cell media was added to each well. The 96-well plate was then incubated at 37° C. for 12 hrs and the cell media was gently removed from the wells. 100 μL of DMSO was added to each well to dissolve the formazan product. The absorbance intensity was recorded, at 570 nm for formazan and at 690 for background, using a Cary-50 Bio UV-Visible spectrophotometer equipped with a Cary 50 MPR microplate reader (Varian, Santa Clara, Calif.).
(§2) PAβAE degradation products were then freeze dried and dissolved in DMSO at a concentration of 100 mg/ml. These concentrated DMSO solutions were then used to prepare fresh dilute solutions of PAβAE degradation products in cell media. Cells were treated with these PAβAE solutions for their cytotoxicity and their effect on cellular oxidative stress levels. To prepare quercetin and curcumin solutions, antioxidants were dissolved in DMSO at a concentration of 10 mg/ml and diluted in cell media.
The nature of series [4]: in vitro. The following applies: human.
Protocol: as §1, §2
For series [5], the system named is HUVECs. The following applies: literature, cited from earlier work.
Series [6] relates to human normal liver cells L-02. The conditions noted are these: literature; cited from earlier work.

What is called viability is the share of living cells, or the viability signal relative to a control. Regarding `OO` [H2O2, hydrogen peroxide], the viability at 500 µM in series [1] (Homo sapiens, HUVEC, 500 μM H2O2 only, 24 hrs, read-out: cell viability compared to untreated control cells) came to 72.9%.

Regarding `CCCCCC(O)/C=C/C=O` (stereo not drawn) [HNE, 4-hydroxy-2-trans-nonenal], the “Change in TEER compared to the TEER measurement at 0 hours” value in series [2] is on record as 75±2.

The IC50 is the point on the concentration scale where inhibition reaches its midpoint. The compound `COc1cc(/C=C/C(=O)CC(=O)/C=C/c2ccc(O)c(OC)c2)ccc1O` [curcumin] came in with a cell death in series [3] (5 μg/ml) of 40%. Besides, the “cell viability compared to untreated control cells” value in series [1] is 57.7 ± 1.6. Further, the half-maximal inhibitory concentration (IC50) at 24 h in series [4] is 6.8 µg/mL (≈ 18.5 µM). In series [5], the “previously reported IC50 value for HUVECs” value is 10.8 µg/mL.

Take `O=c1c(O)c(-c2ccc(O)c(O)c2)oc2cc(O)cc(O)c12` [quercetin, Quercetin]: the “cytotoxicity (in words)” value in series [3] is given as “toxicity to HUVECs was note observed up to a concentration of 100 μg/ml”. The figures for the IC50 in series [6] and in series [5] (read-out: previously reported IC50 value for HUVECs) were 113 µM and 61 µM, respectively. In addition, in series [1], the “cell viability compared to untreated control cells” value is 101.13 ± 3.8. In addition, the “previously reported IC50 value for HUVECs” value in series [5] was 18.4 µg/mL.
